Biological target: T1, porcine pancreatic lipase (Sus scrofa, UniProt P00591)
T1 construct: purchased U.S. Biochemical Corporation
T1 sequence (P00591 1-450): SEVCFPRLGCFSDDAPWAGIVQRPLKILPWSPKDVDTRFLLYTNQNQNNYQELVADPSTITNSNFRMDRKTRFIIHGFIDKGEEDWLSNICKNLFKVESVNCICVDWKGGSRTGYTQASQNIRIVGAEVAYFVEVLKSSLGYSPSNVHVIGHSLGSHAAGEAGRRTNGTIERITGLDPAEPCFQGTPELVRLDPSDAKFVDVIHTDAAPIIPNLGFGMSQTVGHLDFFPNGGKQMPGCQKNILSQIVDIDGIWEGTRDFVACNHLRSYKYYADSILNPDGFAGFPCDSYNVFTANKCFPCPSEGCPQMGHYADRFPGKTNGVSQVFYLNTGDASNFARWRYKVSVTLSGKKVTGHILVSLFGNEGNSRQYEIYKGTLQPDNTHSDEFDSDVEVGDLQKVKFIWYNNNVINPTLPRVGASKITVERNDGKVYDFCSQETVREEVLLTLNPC
Assay: in vitro digestibility (lipase hydrolysis) screening test
Format: biochemical
Details: in 10 minutes with this enzyme system, 37° C., pH 7.1 phosphate buffer; triglyceride control
Method: This example outlines the procedure for estimating the in vitro digestibility of the polyvinyl esters of this invention.
Buffer: A pH 7.1 phosphate buffer is prepared by dissolving 6.8 g. KH2 PO4 in 1 L. of millipore filtered water (to yield 0.05M phosphate). Fifty mg. Ca(NO3)2 and 5.0 g. cholic acid (Na salt, an ox bile isolate from Sigma) are added to give 300 microM Ca^++ and 0.5% cholic acid in 0.05M phosphate. The pH is adjusted to approximately 7.1 with solid NaOH. Several drops of Baker "Resi-analyzed" toluene are added to prevent bacterial growth during storage at 3-5° C.
Lipase: About 15 mg./mL commercial porcine pancreatic lipase from U.S. Biochemical Corporation is dissolved in buffer.
(The proper concentration may be approximated by doubling the molecular weight of the lipid in question, dividing by 10, and diluting to the mark; this yields about 200 nanomoles per microliter.) This preparation affords the substrate to be used in the hydrolysis reactions. Fatty acids and glyceride standards from Nu Chek or Sigma are prepared for elution on TLC plates (prewashed with 1:1 chloroform/methanol) by diluting the substrate solution with 10:1 toluene (1 part substrate plus 9 parts toluene) in septum vials. […]

CCCCCCCC/C=C\CCCCCCCC(=O)OCC(COC(=O)CCCCCCC/C=C\CCCCCCCC)OC(=O)CCCCCCC/C=C\CCCCCCCC [triolein]
hydrolysis by pancreatic lipase (in vitro digestibility): substantially hydrolyzed

Source: patent publication US5115017A, “Polyvinyl oleate as a fat replacement” (Nabisco Brands, Inc., priority 1989, dated 1992)
